Source: article PMC10526274, “Epithelial-Immune Cell Crosstalk Determines the Activation of Immune Cells In Vitro by the Human Cathelicidin LL-37 at Low Physiological Concentrations” (Biomolecules, 2023)
“And” between values parts separate entries of the source, which are not always exact repeats. Equal values may be shown once.

Columns and labels:
primary blood monocytes = assay: Multiplex xMAP cytokine levels, primary blood monocytes alone stimulated with LL-37; assay type: cell-based, human; settings: 1 µM LL-37, 24 h
Protocol: Peripheral blood mononuclear cells (PBMCs) from a healthy donor were purchased from the American Type Culture Collection (ATCC PCS-800-011). Blood monocytes were isolated from PBMCs by plastic adhesion. Mature monocyte-derived dendritic cells (moDCs) were generated in vitro from peripheral blood monocytes, according to Nair et al.. Briefly, monocytes were cultured in a humidified CO2-incubator (5% CO2, 37 °C) in the complete RPMI-1640 medium (Gibco) with 10% FBS, antibiotics, and supplemented with a cytokine cocktail containing 500 U/mL rhIL-4 and 800 U/mL rhGM-CSF (both Sci-Store, Moscow, Russia). On the third day, the medium was replaced by the same fresh medium with FBS, antibiotics, and the cytokine cocktail. Induction of maturation of the immature monocyte-derived dendritic cells was performed on the 5th day by replacing the medium with the complete RPMI-1640 medium (Gibco) with 10% FBS and antibiotics, supplemented with a cytokine cocktail containing 500 U/mL rhIL-4, 800 U/mL rhGM-CSF (both Sci-Store, Moscow, Russia), and 100 U/mL rhTNF-α (Sigma-Aldrich), and subjected to subsequent incubation of the culture for 4 more days.
Primary blood monocytes, moDCs, and NKT cells were seeded in 600 µL of complete RPMI-1640 with 10% Human AB serum (Capricorn Scientific, Ebsdorfergrund, Germany) and supplemented with 1X antibiotic–antimycotic solution into the wells of 24-well plates at a density of 3–7 × 10^5 cells/well 24 h before the experiment. Then, 24 h later, the medium in each well was replaced by the same medium with 1 µM of LL-37 for the sample wells or fresh medium alone for the control wells, and the permeable inserts with the Caco-2 monolayer with TEER > 400 Ω × cm^2, containing 400 μL of the complete medium in their apical chamber, were immediately placed into the appropriate wells. Also, inserts with the Caco-2 monolayer were placed in cell-free wells of 24-well plates in the same complete RPMI-1640 medium with or without 1 µM of LL-37 as controls. Cells were kept in a CO2-incubator (5% CO2, 37 °C) for another 24 h. Then, culture medium from each well was collected, centrifuged, and frozen at −70 °C.
To quantitatively evaluate a broad spectrum of analytes secreted by human cell cultures at the protein level, multiplex xMAP technology was used. The chosen panel (cat. #HCYTA-60K-PX48, Merck, Darmstadt, Germany) included 48 different magnetic beads with primary antibodies to the following cytokines, chemokines, and growth factors: CCL11 (Eotaxin-1), Flt-3 ligand, CX3CL1 (Fractalkine), sCD40L, FGF-2, EGF, GROα, GM-CSF, G-CSF, IL-1RA, IL-1α, IL-1β, IL-2, IL-3, IL-4, IL-5, IL-6, IL-7, CXCL8 (IL-8), IL-9, IL-10, IL-12p40, IL-12p70, IL-13, IL-15, IL-17A (CTLA8), IL-17E (IL-25), IL-17F, IL-18, IL-22, IL-27, IFNγ, IFNα2, CXCL10 (IP-10), CCL2 (MCP-1), CCL7 (MCP-3), CCL22 (MDC), CXCL9 (MIG), CCL3 (MIP-1α), CCL4 (MIP-1β), CCL5 (RANTES), M-CSF, PDGF-AA, PDGF-AB/BB, TNFα, TNFβ, TGFα, and VEGF-A. The assay was performed in accordance with the manufacturer’s instructions with overnight incubation of the samples with primary antibodies, and the plate was read on a MAGPIX System (Merck) using the xPONENT 4.2 software (Merck). The acquired fluorescence data were analyzed by the MILLIPLEX Analyst v5.1 software (Merck), which realized an advanced curve-fitting algorithm. Levels of the analytes in control and experimental samples were compared with an unpaired two-sample t-test using GraphPad Prism v.8.0.1 (GraphPad Software, Inc., San Diego, CA, USA). The p-values ≤ 0.05 were considered significant.

human PBMCs = settings: LL-37 at 5 μg/mL; cited from earlier work
Protocol: In contrast to the chemotactic potential of LL-37, available data on its ability to induce cytokine production by different cells argue for the absence of its biological activity at low physiological concentrations of ∼5 μg/mL observed in non-inflamed tissues. […] In the current study, we used LL-37 at a concentration of 1 μM (4.5 μg/mL) to study whether this peptide had immunomodulatory activity under non-inflamed physiological conditions. In ou ...

In the case of “LL-37: the only human cathelicidin, host defense antimicrobial peptide of 37 a.a. residues, produced by solid-phase peptide synthesis”, the RANTES level (primary blood monocytes; n=2, control 1.06) is reported as 181.22 pg/mL, the FLT-3L level (primary blood monocytes; n=2, control 1.18) is reported as 0.93 pg/mL and the IL-2 level (primary blood monocytes; n=2, control 1.49) is reported as 0.99 pg/mL. For the same substance, the IL-18 level (primary blood monocytes; n=2, control 1.74) was 1.22 pg/mL, the IFNg level (primary blood monocytes; n=2, control 1.82) was 1.8 pg/mL and the IL-4 level (primary blood monocytes; n=2, control 1.92) was 1.63 pg/mL. For the same substance, the IL-17A level (primary blood monocytes; n=2, control 2.18) was 3.05 pg/mL, the IL-15 level (primary blood monocytes; n=2, control 2.88) was 1.82 pg/mL and the GM-CSF level (primary blood monocytes; n=2, control 3.83) was 4.97 pg/mL. For the same substance, the TGF-a level (primary blood monocytes; n=2, control 4.84) was 3.88 pg/mL, the IL-9 level (primary blood monocytes; n=2, control 6.65) was 6.65 pg/mL and the TNFb level (primary blood monocytes; n=2, control 10.12) was 11.76 pg/mL. For the same substance, the IFNa2 level (primary blood monocytes; n=2, control 15.98) was 11.65 pg/mL, the EGF level (primary blood monocytes; n=2, control 18.24) was 17.26 pg/mL and the IL-1a level (primary blood monocytes; n=2, control 18.92) was 25.51 pg/mL. The IL-10 level (primary blood monocytes; n=2, control 22.54, p = 0.23) was 23.6 pg/mL and 23.64 pg/mL, the IL-13 level (primary blood monocytes; n=2, control 25.51) was 23.32 pg/mL and the IL-1b level (primary blood monocytes; n=2, control 25.75, p = 0.094) was 32 pg/mL and 32.49 pg/mL. It also gave an IL-22 level (primary blood monocytes; n=2, control 27.2) of 27.2 pg/mL, a Fractalkine level (primary blood monocytes; n=2, control 28.72) of 25.92 pg/mL and a M-GSF level (primary blood monocytes; n=2, control 32.5) of 62.71 pg/mL. For the same substance, the “IL-12 (p40) level” value (primary blood monocytes; n=2, control 32.89) was 37.68 pg/mL, the VEGFa level (primary blood monocytes; n=2, control 35.58) was 36.32 pg/mL and the MIP-1a level (primary blood monocytes; n=2, control 45.5, p = 0.0001) was 109 pg/mL and 109.63 pg/mL. The FGF-2 level (primary blood monocytes; n=2, control 52.5) was 47.27 pg/mL, the PDGF-AA level (primary blood monocytes; n=2, control 62.71) was 47.99 pg/mL and the IL-27 level (primary blood monocytes; n=2, control 63.66) was 67.29 pg/mL. The MIP-1b level (primary blood monocytes; n=2, control 78.19, p = 0.0004) was 2750 pg/mL, the IL-1RA level (primary blood monocytes; n=2, control 86.47) was 65.97 pg/mL and the sCD40L level (primary blood monocytes; n=2, control 108.76) was 102.18 pg/mL. The TNFa level (primary blood monocytes; n=2, control 110.45, p = 0.15) was 123 pg/mL and 123.49 pg/mL, the G-CSF level (primary blood monocytes; n=2, control 121.45, p = 0.002) was 220 pg/mL and 220.28 pg/mL and the MIG level (primary blood monocytes; n=2, control 606.02, p = 0.003) was 342 pg/mL and 342.19 pg/mL. It also gave a PDGF-AB/BB level (primary blood monocytes; n=2, control 1327) of 1070 pg/mL, an IP-10 level (primary blood monocytes; n=2, control 1716) of 11.29 pg/mL and an MDC level (primary blood monocytes; n=2, control 3407) of 3208 pg/mL. It also gave an IL-6 level (primary blood monocytes; n=2, control 4145) of 4861 pg/mL, an MCP-3 level (primary blood monocytes; n=2, control 4963) of 3343 pg/mL and a GROa level (primary blood monocytes; n=2, control 5512) of 5987 pg/mL. The MCP-1 level (primary blood monocytes; n=2, control 8325) was 7953 pg/mL, the IL-7 level (primary blood monocytes; n=2, control <0.30) was <0.30↓ pg/ml and the IL-5 level (primary blood monocytes; n=2, control <0.35) was <0.35↓ pg/ml. The IL-3 level (primary blood monocytes; n=2, control <0.55) was <0.55↓ pg/ml, the “IL-12 (p70) level” value (primary blood monocytes; n=2, control <1.71) was <1.71↓ pg/ml and the Eotaxin level (primary blood monocytes; n=2, control <2.91) was <2.91↓ pg/ml. The IL-17F level (primary blood monocytes; n=2, control <12.19) was <12.19↓ pg/ml, the IL-17E/IL-25 level (primary blood monocytes; n=2, control <19.43) was <19.43↓ pg/ml and the IL-8 level (primary blood monocytes; n=2, control >21942) was >21942↑ pg/ml. The “Production of TNFα or IL-10 in human PBMCs” value (human PBMCs) was “not able to increase the production of TNFα or IL-10”.
